Data published in patent EP1189688B1, “W/O TYPE EMULSIONS WITH A HIGH WATER CONTENT CONTAINING MEDIUM POLAR LIPIDS” (Beiersdorf AG, priority 1999, dated 2000).

Assay: Interfacial tension of the lipid against water (measure of polarity)
Format: physicochemical
Conditions: lower value = more polar oil
Text: Öle und Fette unterscheiden sich unter anderem in ihrer Polarität, welche schwierig zu definieren ist. Es wurde bereits vorgeschlagen, die Grenzflächenspannung gegenüber Wasser als Maß für den Polaritätsindex eines Öls bzw. einer Ölphase anzunehmen. Dabei gilt, daß die Polarität der betreffenden Ölphase umso größer ist, je niedriger die Grenzflächenspannung zwischen dieser Ölphase und Wasser ist. Erfindungsgemäß wird die Grenzflächenspannung als ein mögliches Maß für die Polarität einer gegebenen Ölkomponente angesehen.
Die Grenzflächenspannung ist diejenige Kraft, die an einer gedachten, in der Grenzfläche zwischen zwei Phasen befindlichen Linie der Länge von einem Meter wirkt. Die physikalische Einheit für diese Grenzflächenspannung errechnet sich klassisch nach der Beziehung Kraft/Länge und wird gewöhnlich in mN/m (Millinewton geteilt durch Meter) wiedergegeben. Sie hat positives Vorzeichen, wenn sie das Bestreben hat, die Grenzfläche zu verkleinern. Im umgekehrten Falle hat sie negatives Vorzeichen.
Die nachfolgende Tabelle 1 führt mittelpolare Lipide auf, die die erfindungsgemäß sind. Die betreffenden Grenzflächenspannungen gegen Wasser sind in der letzten Spalte angegeben. Es ist jedoch auch vorteilhaft, Gemische aus höher- und niederpolaren und dergleichen zu verwenden, sofern gewährleistet ist, daß die Gesamtpolarität der Ölphase im beanspruchten Bereich liegt. Tabelle 1

Compound	Grenzflächenspannungen gegen Wasser
CCCCCCCCCCCCCCCCCC(=O)OCCCCCCCC [Cetiol® 868, Octyl Stearate]	28,4 mN/m
CCCCCCCCCCC(CO)CCCCCCCC (centres unmarked) [Eutanol® G, Octyldodecanol]	24,8 mN/m
CCCCCCCCC(CO)CCCCCC (centres unmarked) [Isofol® 16, Hexyl Decanol]	24,3 mN/m
CCCCCCCCCCCCCCCCCC(=O)OC(C)C [Isopropylstearat, Isopropyl Stearate]	21,9 mN/m
CCCCCCCCCCCCCC(=O)OCC(CCCCCCCC)CCCCCCCCCC (centres unmarked) [MOD, Octyldodeceyl Myristate]	22,1 mN/m
CCCCCCCCCCCCCCCCCCOC(=O)CCCCCC [Tegosoft® SH, Stearyl Heptanoate]	28,7 mN/m
CCCCCCCC(=O)OCC(COC(=O)CCCCCCC)OC(=O)CCCCCCC [Trivent® OCG, Tricaprylin]	20,2 mN/m
Octyl lsostearate [Prisorine® 2036]	29,7 mN/m
